Earlier results on 2 molecules are cited in patent US20040097717A1, “Control of aerial branching” (priority 2000, published 2004).

The subject of one data set is lateral buds. As to conditions: exogenous application to lateral buds (Tames et al., 1979).
A further data set concerns Phaseolus vulgaris. To be noted: decapitated Phaseolus vulgaris, IAA application (Knox and Wareing, 1984).

For the molecule `CC1=CC(=O)CC(C)(C)[C@@]1(O)/C=C/C(C)=C\C(=O)O` [ABA, abscisic acid], in the data set with lateral buds, the lateral bud elongation entry is reported as “inhibited elongation”. On to `O=C(O)Cc1c[nH]c2ccccc12` [IAA], for which the “lateral bud elongation / decrease in ABA level after decapitation” value with Phaseolus vulgaris is “reversed”.
